Test results taken from ChEMBL document CHEMBL1201862, “PubChem BioAssay data set” (2004).
The source made the active and inactive calls. For most assays here, no stated cut-off is given here; in the data, actives have a measured EC50 and inactives only a lower limit.

Experiments:
[1] = Luminescence Cell-Based Dose Retest to Confirm Inhibitors of Cancer Stem Cells. [Related pubchem assays (depositor defined):AID2717, AID2721]; format: functional; settings: Homo sapiens
Cytochrome P450 3A4 = Cytochrome P450 3A4 (Homo sapiens, UniProt P08684);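 further: CYP3A4 tested as one member of a cytochrome P450 panel screen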
[2] = Trypanosoma cruzi growth suppression in host cells – NIH3T3 host cells, beta-gal luminescence, confirmation (AID 2044); format: functional, cell-based;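 further: intracellular parasites grown in NIH/3T3 mouse fibroblasts as host cells; luminescent beta-galactosidase reporter signal from transgenic T. cruzi replicating inside host cells; inhibitors lower the luminescence signal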
[3] = NIH3T3 cell viability loss – ATP luminescence, mouse fibroblasts, counter-screen, dose response (AID 2010); format: functional, cell-based;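 further: cells exposed to compound for about 90 hours before reading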
INS1 = assay: INS-1E survival protection against cytokine death – cell-based, luminescence, retest, dose response (AID 449756); format: functional; settings: Rattus norvegicus;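 further: cell death triggered by IL-1 beta plus TNF-alpha plus IFN-gamma mixture; protective hits raise ATP signal compared with cytokine alone wells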
[4] = target: T1, Heat shock factor protein 1 (Mus musculus, UniProt P38532); assay: decrease of HSF1-responsive luciferase luminescence – cell-based, NIH3T3, dose retest, confirmation (AID 2382); format: functional;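 further: NIH3T3 fibroblasts with HSF1-driven luciferase reporter stressed by proteasome inhibitor MG132; luminescence from HSF1-driven luciferase expression after 8 hours of MG132 stress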
T1 sequence (P38532 whole entry): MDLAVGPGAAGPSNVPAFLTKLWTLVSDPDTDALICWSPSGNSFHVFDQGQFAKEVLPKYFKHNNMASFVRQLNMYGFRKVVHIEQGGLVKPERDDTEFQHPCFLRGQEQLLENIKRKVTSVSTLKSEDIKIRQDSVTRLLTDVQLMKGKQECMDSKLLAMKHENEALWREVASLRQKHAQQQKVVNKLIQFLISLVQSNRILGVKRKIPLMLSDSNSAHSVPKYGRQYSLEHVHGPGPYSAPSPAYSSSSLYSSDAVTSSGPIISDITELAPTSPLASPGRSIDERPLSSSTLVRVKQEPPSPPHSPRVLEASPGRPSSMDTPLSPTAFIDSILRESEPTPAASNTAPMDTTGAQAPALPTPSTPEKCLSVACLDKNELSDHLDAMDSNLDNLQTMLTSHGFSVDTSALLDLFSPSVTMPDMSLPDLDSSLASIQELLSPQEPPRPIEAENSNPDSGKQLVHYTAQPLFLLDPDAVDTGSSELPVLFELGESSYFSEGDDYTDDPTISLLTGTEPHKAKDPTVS

Cytochrome P450 2C9 = Cytochrome P450 2C9 (Homo sapiens, UniProt P11712)
[5] = Luminescence Cell-Based Dose Response HTS to Identify Inhibitors of 5'UTR Stem-Loop Driven Prion Protein mRNA Translation in H4 Neuroglioblastoma Cells. [Related pubchem assays: 1827 (Project Summary), 1813 (Primary HTS)]; format: functional
[6] = luciferase reporter signal suppression in cells – H4 neuroglioma cells, luminescence, dose response (AID 1990); format: functional, cell-based
[7] = alpha-synuclein stem-loop luciferase translation blockers – H4 neuroglioma cells, luminescence, confirmation (AID 1988); format: functional, cell-based
[8] = test system: Streptococcus sp. 'group A'; assay: Streptococcus pyogenes SK(-)GAS viability under kanamycin – luminescence, BacTiterGlo, confirmation, counter-screen for streptokinase expression inhibitor project, dose response (AID 1900); format: functional, organism-based
Streptococcus = assay: GAS UMAA2166 growth inhibition – luminescence, BacTiterGlo, counter-screen for streptokinase expression inhibitor project, dose response (AID 1915); format: functional, organism-based;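 further: potency for reduction of bacterial viability or growth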

Chain of Cytochrome P450 3A4 (P08684 whole entry): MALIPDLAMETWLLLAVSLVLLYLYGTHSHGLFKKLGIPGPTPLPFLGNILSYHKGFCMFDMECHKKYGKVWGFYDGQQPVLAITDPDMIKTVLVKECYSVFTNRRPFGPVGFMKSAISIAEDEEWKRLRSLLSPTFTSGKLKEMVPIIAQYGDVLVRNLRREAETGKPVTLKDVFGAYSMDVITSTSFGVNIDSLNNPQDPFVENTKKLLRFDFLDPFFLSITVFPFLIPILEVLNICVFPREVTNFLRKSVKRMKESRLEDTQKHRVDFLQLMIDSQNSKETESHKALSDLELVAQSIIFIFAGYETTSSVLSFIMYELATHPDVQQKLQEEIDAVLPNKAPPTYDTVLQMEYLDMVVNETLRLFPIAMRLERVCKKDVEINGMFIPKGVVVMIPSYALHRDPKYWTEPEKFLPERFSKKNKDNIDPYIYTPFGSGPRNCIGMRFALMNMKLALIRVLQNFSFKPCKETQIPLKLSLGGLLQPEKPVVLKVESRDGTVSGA
Chain of Cytochrome P450 2C9 (P11712 whole entry): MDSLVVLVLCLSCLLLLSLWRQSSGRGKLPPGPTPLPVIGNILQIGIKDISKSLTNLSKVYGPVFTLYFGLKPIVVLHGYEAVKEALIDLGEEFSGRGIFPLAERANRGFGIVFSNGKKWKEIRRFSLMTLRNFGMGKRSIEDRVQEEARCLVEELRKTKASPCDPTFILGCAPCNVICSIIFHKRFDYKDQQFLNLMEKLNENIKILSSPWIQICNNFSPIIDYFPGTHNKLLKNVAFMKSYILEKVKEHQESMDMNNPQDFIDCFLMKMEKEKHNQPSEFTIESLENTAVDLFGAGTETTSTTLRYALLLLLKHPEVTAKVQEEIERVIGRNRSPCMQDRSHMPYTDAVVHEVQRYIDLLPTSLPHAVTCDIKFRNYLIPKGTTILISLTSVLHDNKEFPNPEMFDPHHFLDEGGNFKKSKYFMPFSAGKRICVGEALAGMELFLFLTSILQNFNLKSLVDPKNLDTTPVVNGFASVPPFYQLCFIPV

CCCCn1c(C2CCCCC2)nc2cc3nc(O)c(C(C)C)nc3cc21
AC50 [1]: 1.23 µM (active)

O=C(c1ccccc1)c1cc(F)c(N2CCOCC2)cc1Cl
AC50 (Cytochrome P450 3A4): 17.8 µM (inconclusive)

CN1CCN(NC(=O)c2ccc(S(=O)(=O)N3CCCCCC3)cc2)CC1
EC50 [2]: 0.247 µM (active) | EC50 [3]: > 60 µM (not active)

CCCCN(C)CCNC(=O)c1cc2c(-c3ccccc3F)nn(C)c2s1
AC50 (INS1): > 260 µM (inactive) | EC50 [4]: > 195 µM (not active)

O=C(Nc1cccnc1Cl)c1cc([N+](=O)[O-])ccc1Cl
EC50 [2]: > 60 µM (not active) | EC50 [3]: > 60 µM (not active)

O=C1C2CCCN2C(c2ccc(F)cc2)N1c1nccs1 (stereo not drawn)
AC50 (Cytochrome P450 3A4): 22.4 µM (inconclusive) | AC50 (Cytochrome P450 2C9): 35.5 µM (inconclusive)

Cc1ccc(C)c(NC(=O)c2ccccc2NS(=O)(=O)c2cc([N+](=O)[O-])ccc2C)c1
AC50 (INS1): 3.76 µM (active) | AC50 [1]: 1.19 µM (active)

COc1cccc2s/c(=N/C(=O)CS(=O)(=O)c3ccc(F)cc3)n(C)c12
EC50 [2]: 1.2 µM (active) | EC50 [3]: > 60 µM (not active)

CC/C(NNc1ccccc1)=C1/C(=O)NC(=O)N(c2ccccc2)C1=O
AC50 [1]: 0.828 µM (active)

Cc1cc(C)c2nc(C(F)(F)F)c(C#N)c(N)c2c1
EC50 [4]: 3.15 µM (active)

COc1ccc([C@@H]2[C@@H]3C(=O)N(C(C)(C)C)C(=O)[C@@H]3[C@]3(C)C(=O)N(c4cccc(F)c4)C(=O)N23)cc1
EC50 [5]: > 120 µM (not active) | EC50 [6]: > 120 µM (not active) | EC50 [7]: > 120 µM (not active)

CC(C)c1nc(N2CCOCC2)c(C#N)c2c1COC(C)(C)C2
EC50 [5]: > 120 µM (not active) | EC50 [6]: 33.6 µM (active) | EC50 [7]: > 120 µM (not active)

Nc1nnc(SCCOc2cccc(Br)c2)s1
AC50 (Cytochrome P450 2C9): 15.8 µM (inconclusive)

COc1ccc(N(CC(=O)NC2CCCCCCC2)S(=O)(=O)c2c(C)nn(C)c2C)cc1
EC50 [4]: > 195 µM (not active)

COc1cccc(-c2cc(NCCc3c[nH]c4ccc(OC)cc34)ncn2)c1
AC50 (Cytochrome P450 2C9): 1.58 µM (inconclusive)

O=C(CC12CC3CC(CC(C3)C1)C2)NC(=S)Nc1ccc(CN2CCOCC2)cc1
EC50 [2]: 1.51 µM (active) | EC50 [3]: 9.26 µM (active)

COc1ccc(OC)c(NC(=O)CSc2nnc(-c3cccnc3)s2)c1
AC50 (INS1): 3.66 µM (active)

Cc1cc(C)n(-c2ccc(NC(=O)C3CCCCN3C(=O)c3ccoc3C)cc2)n1 (stereo not drawn)
EC50 [4]: > 195 µM (not active)

CC/C(NNc1ccccc1)=C1/C(=O)NC(=O)N(c2ccc(OC)cc2)C1=O
AC50 [1]: 0.769 µM (active)

Cn1ccnc1C1CCCCN1C(=O)c1cc(COc2ccc(F)cc2Cl)on1 (stereo not drawn)
EC50 [4]: > 195 µM (not active)

O=C(NCCS(=O)(=O)N1CCN(c2ccc(F)cc2)CC1)c1ccc(Br)o1
EC50 [5]: > 120 µM (not active) | EC50 [6]: > 120 µM (not active) | EC50 [7]: > 120 µM (not active)

Cn1c(-c2ccsc2)c(-c2cccs2)c2cc(Br)ccc21
AC50 [1]: 3.15 µM (active)

Cc1noc(C)c1C(=O)N1CCC(C(=O)c2ccccc2)CC1
EC50 [4]: > 195 µM (not active)

Clc1ccccc1N1CCN(Cc2c[nH]c3ccccc23)CC1
EC50 [2]: 1.43 µM (active) | EC50 [3]: > 60 µM (not active)

CS(=O)(=O)n1nc(-c2cccnc2)nc1NCc1ccccc1
EC50 [5]: > 120 µM (not active) | EC50 [6]: > 120 µM (not active) | EC50 [7]: > 120 µM (not active)

CCOCC(=O)Nc1cc(C(=O)Nc2cccc(C)c2C)ccc1Cl
AC50 (Cytochrome P450 3A4): 25.1 µM (inconclusive)

Cc1cccc(Nc2c([N+](=O)[O-])cc(C(=O)N3CC(=O)Nc4ccccc43)cc2[N+](=O)[O-])c1
EC50 [2]: 0.518 µM (active) | EC50 [3]: > 60 µM (not active)

Cc1ccc(S(=O)(=O)N2CCC(C(=O)N[C@@H](Cc3ccccc3)C(=O)O)CC2)cc1
EC50 [4]: > 195 µM (not active)

O=C(N1CCCCC1)N1CCN(S(=O)(=O)c2ccccc2)CC1
EC50 [4]: 32.8 µM (active)

C=C(C)COc1ccc2c(c1)CCC1C2CC[C@]2(C)C(=O)/C(=N/O)CC12 (stereo partly drawn)
AC50 (Cytochrome P450 2C9): 3.16 µM (inconclusive)

N#Cc1c(N2CCOCC2)nc(-c2ccco2)c2c1CCCC2
EC50 [5]: 18.5 µM (active) | EC50 [6]: 21.5 µM (active) | EC50 [7]: > 120 µM (not active)

CCOc1ccc(-c2cc(CCCC(=O)N3CCN(c4ccc(OC)cc4)CC3)no2)cc1
EC50 [5]: > 120 µM (not active) | EC50 [6]: > 120 µM (not active) | EC50 [7]: 28.1 µM (active)

COC(=O)N/N=C/c1ccc(/C=N/NC(=O)OC)cc1
EC50 [4]: > 195 µM (not active)

CCC(C)(C)n1nnnc1C(c1cc2ccc(OC)cc2nc1O)N1CCc2ccccc2C1 (stereo not drawn)
EC50 [2]: 1.91 µM (active) | EC50 [3]: 4.98 µM (active)

O=C(C1=C[C@H](c2ccc(C(F)(F)F)cc2)C[C@H](OCCCCO)O1)N1CCN(Cc2ccc3c(c2)OCO3)CC1
EC50 [4]: > 195 µM (not active)

O=C(CCNC(=O)c1ccccc1Cl)Nc1nc(-c2ccc3ccccc3c2)cs1
EC50 [2]: 2.02 µM (active) | EC50 [3]: > 60 µM (not active)

c1ccc(Cn2c[n+](Cc3ccccc3)cn2)cc1
EC50 [4]: > 195 µM (not active)

Cn1c(NCc2cccnc2)nc2c1c(=O)n(Cc1ccccc1F)c(=O)n2C
EC50 [5]: > 120 µM (not active) | EC50 [6]: 18.5 µM (active) | EC50 [7]: > 120 µM (not active)

Cc1ccc(-n2nc(C)c3c(C)c(CCC(=O)NCC4CCCO4)c(=O)n(C)c32)cc1 (stereo not drawn)
EC50 [2]: 5.19 µM (active) | EC50 [3]: > 60 µM (not active)

CCn1c(C)c(C)c2cc(C(=O)N3CCN(c4cccc(C)c4C)CC3)ccc21
AC50 [1]: 4.18 µM (active)

COc1ccc2nc(NC(=O)c3cccc(-c4cc5ccccc5oc4=O)c3)sc2c1
AC50 [1]: 6.73 µM (active)

O=C(c1nn2c(C(F)(F)F)cc(-c3ccco3)nc2c1Br)N1CCCc2ccccc21
EC50 [5]: 13.8 µM (active) | EC50 [6]: 8.31 µM (active) | EC50 [7]: 10.2 µM (active)

C/C(=N/Cc1cccc(Cl)c1)c1nc(-c2ccco2)oc1O
AC50 [1]: 1.08 µM (active)

CC(C)C(NC(=O)C12CC3CC(CC(C3)C1)C2)C(=O)N/N=C/C1=C(N2CCOCC2)C(=C\c2cccc([N+](=O)[O-])c2)/CC1 (stereo not drawn)
EC50 [2]: 2.16 µM (active) | EC50 [3]: > 60 µM (not active)

Cc1ccc(NCc2ccc(C)s2)cc1
EC50 [2]: 2.13 µM (active) | EC50 [3]: > 60 µM (not active)

O=C(CSc1nc2ccccc2n1S(=O)(=O)c1ccccc1)N1CCCCC1
EC50 [4]: > 195 µM (not active)

CCCn1c2c(c(O)c(C(=O)NCc3ccccc3)c1=O)CCCC2
AC50 (Cytochrome P450 2C9): 20 µM (inconclusive)

Cc1ccc(Cl)cc1N=C(S)N(Cc1cccnc1)Cc1ccccc1Cl
EC50 [2]: 0.554 µM (active) | EC50 [3]: > 60 µM (not active)

CCOc1ccc(-n2nc3ccc(NC(=O)c4ccc5c(c4)OCCO5)cc3n2)cc1
EC50 [5]: 72.6 µM (active) | EC50 [6]: > 120 µM (not active) | EC50 [7]: 12.7 µM (active)

CC(=O)NC(=S)Nc1cccc(S(=O)(=O)NC2=NCCC2)c1
EC50 [4]: > 195 µM (not active)

COc1cc(CNCCN2CCOCC2)ccc1OCc1ccccc1Cl
AC50 (Cytochrome P450 2C9): 7.94 µM (inconclusive)

COCCCN=C(S)NN=C(S)Nc1cccc(Cl)c1
EC50 [8]: > 150 µM (not active) | EC50 (Streptococcus): > 150 µM (not active)

CN(Cc1ccccc1)CC(O)COc1ccc(CNCCc2ccncc2)cc1 (stereo not drawn)
EC50 [2]: 0.9 µM (active) | EC50 [3]: > 60 µM (not active)

CCOC(=O)Cc1csc(NC(=O)c2c(O)c3ccccc3n(CC(C)C)c2=O)n1
EC50 [5]: > 120 µM (not active) | EC50 [6]: > 120 µM (not active) | EC50 [7]: 11.1 µM (active)

CC(=O)c1cccc(/N=c2\scc(-c3ccc(S(=O)(=O)N4CCOCC4)cc3)n2CCO)c1
AC50 (INS1): 2.5 µM (active)

CN(C)Cc1ccccc1-c1ccc2ncnc(N(C)Cc3ccco3)c2c1
AC50 (Cytochrome P450 3A4): 15.8 µM (inconclusive)
